Measured values: ChEMBL document CHEMBL4507288 (2021)
The source made the active and inactive calls.

Tests used:
[1] = molecular target: Amyloid-beta precursor protein (Homo sapiens, UniProt P05067); assay: Aβ40 inhibition assay
[2] = molecular target: 5-hydroxytryptamine receptor 6 (Homo sapiens) (UniProt P50406); settings: Compound concentration 10.0 uM
[3] = molecular target: D(1B) dopamine receptor (Homo sapiens) (UniProt P21918); settings: Compound concentration 10.0 uM
[4] = molecular target: D(1A) dopamine receptor (Homo sapiens) (UniProt P21728); settings: Compound concentration 10.0 uM
[5] = molecular target: Histamine H3 receptor (Homo sapiens) (UniProt Q9Y5N1); settings: Compound concentration 10.0 uM
[6] = molecular target: 5-hydroxytryptamine receptor 1D (Homo sapiens, UniProt P28221); settings: Compound concentration 10.0 uM
[7] = molecular target: Mu-type opioid receptor (Homo sapiens) (UniProt P35372); settings: Compound concentration 10.0 uM
[8] = molecular target: 5-hydroxytryptamine receptor 3A (Homo sapiens) (UniProt P46098); settings: Compound concentration 10.0 uM
[9] = molecular target: 5-hydroxytryptamine receptor 1A (Homo sapiens) (UniProt P08908); settings: Compound concentration 10.0 uM
[10] = molecular target: GABA-A receptor; anion channel (Rattus norvegicus) (UniProt O09028+P15431+P18506+P18508+P19969+P20236+P23574+P23576+P28471+P28473+P30191+P62813+P63079+P63138+Q91ZM7+Q9ES14); settings: Compound concentration 10.0 uM
[11] = system: Hepatocyte growth factor receptor (Homo sapiens), P08581 [M1250T]; settings: Compound concentration 1000.0 nM
[12] = molecular target: Sodium-dependent noradrenaline transporter (Homo sapiens, UniProt P23975); settings: Compound concentration 10.0 uM
[13] = molecular target: Sigma non-opioid intracellular receptor 1 (Homo sapiens, UniProt Q99720); settings: Compound concentration 10.0 uM
D(3) dopamine receptor = D(3) dopamine receptor (Homo sapiens, UniProt P35462); settings: Compound concentration 10.0 uM
D(2) dopamine receptor = D(2) dopamine receptor (Homo sapiens, UniProt P14416); settings: Compound concentration 10.0 uM
[14] = molecular target: Mast/stem cell growth factor receptor Kit (Homo sapiens) (UniProt P10721); settings: Compound concentration 1000.0 nM
[15] = molecular target: Alpha-2A adrenergic receptor (Homo sapiens) (UniProt P08913); settings: Compound concentration 10.0 uM
[16] = molecular target: 5-hydroxytryptamine receptor 5A (Homo sapiens) (UniProt P47898); settings: Compound concentration 10.0 uM
[17] = molecular target: D(4) dopamine receptor (Homo sapiens) (UniProt P21917); settings: Compound concentration 10.0 uM
[18] = molecular target: Ephrin type-A receptor 5 (Homo sapiens) (UniProt P54756); settings: Compound concentration 1000.0 nM
[19] = molecular target: Alpha-2C adrenergic receptor (Homo sapiens) (UniProt P18825); settings: Compound concentration 10.0 uM
[20] = molecular target: Alpha-1B adrenergic receptor (Homo sapiens) (UniProt P35368); settings: Compound concentration 10.0 uM
[21] = molecular target: 5-hydroxytryptamine receptor 2C (Homo sapiens) (UniProt P28335); settings: Compound concentration 10.0 uM
[22] = molecular target: Beta-3 adrenergic receptor (Homo sapiens) (UniProt P13945); settings: Compound concentration 10.0 uM
[23] = molecular target: 5-hydroxytryptamine receptor 7 (Homo sapiens, UniProt P34969); settings: Compound concentration 10.0 uM
[24] = molecular target: Delta-type opioid receptor (Homo sapiens) (UniProt P41143); settings: Compound concentration 10.0 uM
[25] = molecular target: Alpha-1A adrenergic receptor (Homo sapiens) (UniProt P35348); settings: Compound concentration 10.0 uM
[26] = molecular target: MAP/microtubule affinity-regulating kinase 4 (Homo sapiens) (UniProt Q96L34); settings: Compound concentration 1000.0 nM
[27] = molecular target: Muscarinic acetylcholine receptor M5 (Homo sapiens) (UniProt P08912); settings: Compound concentration 10.0 uM
[28] = molecular target: Dual specificity tyrosine-phosphorylation-regulated kinase 2 (Homo sapiens) (UniProt Q92630); settings: Compound concentration 1000.0 nM
[29] = molecular target: Mitogen-activated protein kinase kinase kinase 7 (Homo sapiens) (UniProt O43318); settings: Compound concentration 1000.0 nM
[30] = molecular target: 5'-AMP-activated protein kinase catalytic subunit alpha-1 (Homo sapiens) (UniProt Q13131); settings: Compound concentration 1000.0 nM
[31] = molecular target: Sigma intracellular receptor 2 (Homo sapiens, UniProt Q5BJF2); settings: Compound concentration 10.0 uM
[32] = molecular target: Alpha-2B adrenergic receptor (Homo sapiens) (UniProt P18089); settings: Compound concentration 10.0 uM
[33] = molecular target: Muscarinic acetylcholine receptor M4 (Homo sapiens) (UniProt P08173); settings: Compound concentration 10.0 uM
[34] = molecular target: Sodium-dependent dopamine transporter (Homo sapiens, UniProt Q01959); settings: Compound concentration 10.0 uM
[35] = molecular target: 5-hydroxytryptamine receptor 2B (Homo sapiens, UniProt P41595); settings: Compound concentration 10.0 uM
[36] = molecular target: Alpha-1D adrenergic receptor (Homo sapiens) (UniProt P25100); settings: Compound concentration 10.0 uM
[37] = molecular target: Sodium-dependent serotonin transporter (Homo sapiens) (UniProt P31645); settings: Compound concentration 10.0 uM
[38] = molecular target: Histamine H1 receptor (Homo sapiens) (UniProt P35367); settings: Compound concentration 10.0 uM
[39] = molecular target: Kappa-type opioid receptor (Homo sapiens, UniProt P41145); settings: Compound concentration 10.0 uM
[40] = molecular target: 5-hydroxytryptamine receptor 2A (Homo sapiens, UniProt P28223); settings: Compound concentration 10.0 uM
[41] = molecular target: cAMP-dependent protein kinase catalytic subunit beta (Homo sapiens) (UniProt P22694); settings: Compound concentration 1000.0 nM
[42] = molecular target: Muscarinic acetylcholine receptor M2 (Homo sapiens) (UniProt P08172); settings: Compound concentration 10.0 uM
[43] = molecular target: 5-hydroxytryptamine receptor 1B (Homo sapiens, UniProt P28222); settings: Compound concentration 10.0 uM
[44] = molecular target: Muscarinic acetylcholine receptor M1 (Homo sapiens) (UniProt P11229); settings: Compound concentration 10.0 uM
Sequence of Muscarinic acetylcholine receptor M1 (Homo sapiens) (P11229 whole entry): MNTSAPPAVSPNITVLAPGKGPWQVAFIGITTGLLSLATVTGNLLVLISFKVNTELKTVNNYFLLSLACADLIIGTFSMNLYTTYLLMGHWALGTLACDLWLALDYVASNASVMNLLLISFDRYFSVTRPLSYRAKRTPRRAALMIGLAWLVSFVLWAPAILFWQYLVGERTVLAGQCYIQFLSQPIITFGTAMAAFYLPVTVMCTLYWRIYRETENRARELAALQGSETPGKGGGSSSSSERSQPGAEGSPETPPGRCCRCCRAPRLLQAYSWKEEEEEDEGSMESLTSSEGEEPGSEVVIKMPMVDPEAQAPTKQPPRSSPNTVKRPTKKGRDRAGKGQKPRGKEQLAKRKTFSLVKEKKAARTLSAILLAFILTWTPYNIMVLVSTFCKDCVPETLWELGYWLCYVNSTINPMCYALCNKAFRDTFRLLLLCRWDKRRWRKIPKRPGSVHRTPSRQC

Sequence of Kappa-type opioid receptor (P41145 whole entry): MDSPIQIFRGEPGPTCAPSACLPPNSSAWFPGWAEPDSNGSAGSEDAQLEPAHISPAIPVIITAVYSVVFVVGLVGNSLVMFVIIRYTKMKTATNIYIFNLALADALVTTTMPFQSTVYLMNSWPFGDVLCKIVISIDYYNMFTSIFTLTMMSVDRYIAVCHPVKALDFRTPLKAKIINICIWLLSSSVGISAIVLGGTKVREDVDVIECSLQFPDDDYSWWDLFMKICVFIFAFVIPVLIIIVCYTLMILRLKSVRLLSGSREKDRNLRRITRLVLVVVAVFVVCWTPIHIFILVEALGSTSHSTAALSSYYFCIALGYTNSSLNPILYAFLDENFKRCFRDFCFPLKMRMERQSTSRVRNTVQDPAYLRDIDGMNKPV
Sequence of Histamine H1 receptor (Homo sapiens) (P35367 whole entry): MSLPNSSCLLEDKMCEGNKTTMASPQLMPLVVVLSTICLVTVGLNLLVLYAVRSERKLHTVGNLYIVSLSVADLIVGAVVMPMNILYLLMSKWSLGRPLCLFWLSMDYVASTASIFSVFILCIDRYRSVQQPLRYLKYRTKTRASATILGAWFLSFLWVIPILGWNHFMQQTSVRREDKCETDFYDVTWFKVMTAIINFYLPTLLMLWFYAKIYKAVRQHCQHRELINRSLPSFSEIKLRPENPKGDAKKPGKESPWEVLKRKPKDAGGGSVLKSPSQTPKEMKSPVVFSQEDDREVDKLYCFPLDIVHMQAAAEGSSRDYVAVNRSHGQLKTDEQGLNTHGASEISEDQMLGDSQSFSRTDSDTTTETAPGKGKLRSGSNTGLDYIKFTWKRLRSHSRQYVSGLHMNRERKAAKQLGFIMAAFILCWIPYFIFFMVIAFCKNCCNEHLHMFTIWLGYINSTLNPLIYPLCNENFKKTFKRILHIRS
Sequence of Muscarinic acetylcholine receptor M5 (Homo sapiens) (P08912 whole entry): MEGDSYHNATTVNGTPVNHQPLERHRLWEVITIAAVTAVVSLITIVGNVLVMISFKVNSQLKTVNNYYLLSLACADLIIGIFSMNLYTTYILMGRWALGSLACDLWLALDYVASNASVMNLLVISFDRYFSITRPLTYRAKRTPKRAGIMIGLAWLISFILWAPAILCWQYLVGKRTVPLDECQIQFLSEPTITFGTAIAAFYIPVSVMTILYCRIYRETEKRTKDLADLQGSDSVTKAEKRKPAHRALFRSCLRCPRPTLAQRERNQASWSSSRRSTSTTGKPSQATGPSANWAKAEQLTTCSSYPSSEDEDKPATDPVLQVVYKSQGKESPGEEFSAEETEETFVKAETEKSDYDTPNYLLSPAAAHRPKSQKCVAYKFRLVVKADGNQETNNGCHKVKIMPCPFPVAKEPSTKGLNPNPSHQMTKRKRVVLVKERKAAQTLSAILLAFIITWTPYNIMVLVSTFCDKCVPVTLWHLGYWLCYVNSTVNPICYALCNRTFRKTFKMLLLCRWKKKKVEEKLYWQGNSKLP
Sequence of Histamine H3 receptor (Homo sapiens) (Q9Y5N1 whole entry): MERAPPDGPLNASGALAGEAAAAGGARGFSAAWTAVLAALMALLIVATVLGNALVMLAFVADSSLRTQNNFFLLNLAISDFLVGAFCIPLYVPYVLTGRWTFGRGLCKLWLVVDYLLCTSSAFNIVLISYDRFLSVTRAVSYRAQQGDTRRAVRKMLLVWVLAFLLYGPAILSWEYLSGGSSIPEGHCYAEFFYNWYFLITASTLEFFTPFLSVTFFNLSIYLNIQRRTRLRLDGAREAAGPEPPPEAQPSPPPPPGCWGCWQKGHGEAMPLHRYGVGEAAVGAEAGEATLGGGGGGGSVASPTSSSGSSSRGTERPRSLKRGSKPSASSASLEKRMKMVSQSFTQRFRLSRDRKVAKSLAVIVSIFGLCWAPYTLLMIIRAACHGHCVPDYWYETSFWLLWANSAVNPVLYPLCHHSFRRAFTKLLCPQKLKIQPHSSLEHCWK
Sequence of 5-hydroxytryptamine receptor 1A (Homo sapiens) (P08908 whole entry): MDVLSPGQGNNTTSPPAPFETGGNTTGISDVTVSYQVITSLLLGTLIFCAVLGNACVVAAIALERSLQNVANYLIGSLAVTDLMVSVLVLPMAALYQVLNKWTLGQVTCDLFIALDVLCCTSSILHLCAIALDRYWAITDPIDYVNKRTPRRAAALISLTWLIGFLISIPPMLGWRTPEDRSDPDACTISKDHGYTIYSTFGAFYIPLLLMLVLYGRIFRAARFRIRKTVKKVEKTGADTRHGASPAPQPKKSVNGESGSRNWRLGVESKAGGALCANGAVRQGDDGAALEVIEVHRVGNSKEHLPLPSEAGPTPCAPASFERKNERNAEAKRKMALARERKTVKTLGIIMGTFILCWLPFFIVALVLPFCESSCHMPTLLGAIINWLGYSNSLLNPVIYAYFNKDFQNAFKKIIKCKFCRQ
Sequence of 5-hydroxytryptamine receptor 1D (P28221 whole entry): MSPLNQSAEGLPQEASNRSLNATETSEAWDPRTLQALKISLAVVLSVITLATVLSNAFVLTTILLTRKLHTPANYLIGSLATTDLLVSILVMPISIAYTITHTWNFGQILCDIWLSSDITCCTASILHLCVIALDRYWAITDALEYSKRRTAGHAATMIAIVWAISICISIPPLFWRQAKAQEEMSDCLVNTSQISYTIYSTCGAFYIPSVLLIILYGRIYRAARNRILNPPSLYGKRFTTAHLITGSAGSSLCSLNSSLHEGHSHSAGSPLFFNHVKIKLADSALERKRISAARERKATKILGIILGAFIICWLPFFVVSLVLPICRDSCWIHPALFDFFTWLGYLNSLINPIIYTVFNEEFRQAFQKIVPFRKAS
Sequence of Mu-type opioid receptor (Homo sapiens) (P35372 whole entry): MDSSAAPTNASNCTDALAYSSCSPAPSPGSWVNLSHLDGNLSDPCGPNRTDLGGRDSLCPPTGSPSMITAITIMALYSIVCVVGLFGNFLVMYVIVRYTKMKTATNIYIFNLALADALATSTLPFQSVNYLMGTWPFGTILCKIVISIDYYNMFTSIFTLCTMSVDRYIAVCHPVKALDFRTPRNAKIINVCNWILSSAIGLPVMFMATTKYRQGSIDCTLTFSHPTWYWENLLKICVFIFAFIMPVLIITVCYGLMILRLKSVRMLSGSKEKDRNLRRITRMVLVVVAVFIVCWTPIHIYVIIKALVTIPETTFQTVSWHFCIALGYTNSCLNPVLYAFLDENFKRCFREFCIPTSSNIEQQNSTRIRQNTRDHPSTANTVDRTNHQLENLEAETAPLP
Sequence of 5-hydroxytryptamine receptor 2B (P41595 whole entry): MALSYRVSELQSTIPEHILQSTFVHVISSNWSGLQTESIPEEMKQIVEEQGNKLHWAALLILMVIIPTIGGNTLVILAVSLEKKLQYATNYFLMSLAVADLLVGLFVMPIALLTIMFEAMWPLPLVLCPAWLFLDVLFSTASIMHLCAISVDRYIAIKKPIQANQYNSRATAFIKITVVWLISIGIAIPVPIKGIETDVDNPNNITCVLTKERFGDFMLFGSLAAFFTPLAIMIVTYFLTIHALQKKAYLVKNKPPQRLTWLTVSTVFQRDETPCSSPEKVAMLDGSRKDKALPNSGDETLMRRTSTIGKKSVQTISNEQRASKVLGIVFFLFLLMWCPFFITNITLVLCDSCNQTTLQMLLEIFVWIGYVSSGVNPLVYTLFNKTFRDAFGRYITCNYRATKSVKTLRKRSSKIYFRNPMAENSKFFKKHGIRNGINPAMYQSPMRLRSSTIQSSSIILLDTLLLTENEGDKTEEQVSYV
Sequence of Delta-type opioid receptor (Homo sapiens) (P41143 whole entry): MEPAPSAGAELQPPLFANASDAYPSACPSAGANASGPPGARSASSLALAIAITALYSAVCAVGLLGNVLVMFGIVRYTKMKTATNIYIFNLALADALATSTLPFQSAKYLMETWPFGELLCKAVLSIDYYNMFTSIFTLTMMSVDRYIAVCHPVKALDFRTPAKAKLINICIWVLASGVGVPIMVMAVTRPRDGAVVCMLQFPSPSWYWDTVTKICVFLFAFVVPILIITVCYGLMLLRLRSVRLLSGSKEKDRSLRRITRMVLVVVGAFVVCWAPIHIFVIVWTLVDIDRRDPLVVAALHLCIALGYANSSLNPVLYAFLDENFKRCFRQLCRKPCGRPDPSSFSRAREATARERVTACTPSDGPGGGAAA
Sequence of 5-hydroxytryptamine receptor 1B (P28222 whole entry): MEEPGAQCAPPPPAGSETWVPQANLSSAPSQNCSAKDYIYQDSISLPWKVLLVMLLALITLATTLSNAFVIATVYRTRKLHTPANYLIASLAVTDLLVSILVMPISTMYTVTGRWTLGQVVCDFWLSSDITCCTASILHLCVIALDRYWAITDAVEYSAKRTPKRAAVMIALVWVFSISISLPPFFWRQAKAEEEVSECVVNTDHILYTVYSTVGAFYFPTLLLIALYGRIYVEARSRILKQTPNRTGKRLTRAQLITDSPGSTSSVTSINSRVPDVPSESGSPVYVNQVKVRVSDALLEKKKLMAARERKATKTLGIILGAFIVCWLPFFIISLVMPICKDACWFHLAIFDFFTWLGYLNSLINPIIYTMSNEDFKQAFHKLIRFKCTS
Sequence of Sigma intracellular receptor 2 (Q5BJF2 whole entry): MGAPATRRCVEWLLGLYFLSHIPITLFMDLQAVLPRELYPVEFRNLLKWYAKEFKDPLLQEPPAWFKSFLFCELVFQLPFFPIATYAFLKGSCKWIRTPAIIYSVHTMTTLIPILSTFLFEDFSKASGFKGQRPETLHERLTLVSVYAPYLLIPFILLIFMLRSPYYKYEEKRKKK

O=S(=O)(NC1CCC(c2cc(F)ccc2F)(S(=O)(=O)c2ccc(Cl)cc2)CC1)C(F)(F)F (centres undefined) [MRK-560]
inactive: inhibition [2] 12.3% | inhibition [3] 11.3% | inhibition [4] 17.4% | inhibition [5] 14.2% | inhibition [6] 13.9% | inhibition [7] 20% | inhibition [8] -8.12% | inhibition [9] 18.3% | inhibition [10] 28.6% | residual activity [11] 84% | inhibition [12] 7.49% | inhibition [13] 36.8% | inhibition (D(3) dopamine receptor) 21.7% | inhibition (D(2) dopamine receptor) 11.4% | residual activity [14] 100% | inhibition [15] 8.45% | inhibition [16] -5.05% | inhibition [17] 20.1% | residual activity [18] 100% | inhibition [19] 18.2% | inhibition [20] -5.22% | inhibition [21] 12.3% | inhibition [22] 13.5% | inhibition [23] -5.02% | inhibition [24] 20% | inhibition [25] 9.88% | residual activity [26] 100% | inhibition [27] 1.96% | residual activity [28] 100% | residual activity [29] 100% | residual activity [30] 100% | inhibition [31] 25.2% | inhibition [32] -2.13% | inhibition [33] 18.9% | inhibition [35] 4.74% | inhibition [36] 0.882% | inhibition [37] -3.67% | inhibition [38] 20.3% | inhibition [39] 24.6% | inhibition [40] 31.2% | residual activity [41] 98% | inhibition [42] -0.654% | inhibition [43] 15.4% | inhibition [44] -5.38%
active: IC50 [1] < 0.5 nM | inhibition [34] 75.1%

CC(C)(C)OC(=O)N1CCCC1CNC1CCC(c2cc(F)ccc2F)(S(=O)(=O)c2ccc(Cl)cc2)CC1 (centres undefined) [GSI-NC]
1600 nM (not active): IC50 [1]
active: inhibition [6] 61.4% | inhibition [9] 66.3% | inhibition [12] 50.7% | inhibition [13] 91.6% | inhibition (D(3) dopamine receptor) 86.1% | inhibition (D(2) dopamine receptor) 83% | inhibition [15] 82.3% | inhibition [19] 81.4% | inhibition [21] 80.9% | inhibition [23] 70.7% | inhibition [31] 83.4% | inhibition [32] 77.4% | inhibition [34] 95.9% | inhibition [35] 97.2% | inhibition [39] 69.8% | inhibition [40] 92.2% | inhibition [43] 70.4%
inactive: inhibition [2] 37.1% | inhibition [3] 13.1% | inhibition [4] 13.8% | inhibition [5] 26.9% | inhibition [7] 49.1% | inhibition [8] -5.6% | inhibition [10] 14.6% | inhibition [16] 35% | inhibition [17] 20.4% | inhibition [20] 41% | inhibition [22] 25.6% | inhibition [24] 21.4% | inhibition [25] 12.4% | inhibition [27] 26.5% | inhibition [33] 25.6% | inhibition [36] 22.5% | inhibition [37] 6.71% | inhibition [38] 25.6% | inhibition [42] 9.4% | inhibition [44] 8.44%
